The record followed here is patent US7501113B2, “Aerosol formulations and aerosol delivery of buprenorphine” (priority 2003, dated 2009).

“And” between values parts separate entries of the source, which are not always exact repeats. Equal values may be shown once. Read-outs that look alike come from different tables or passages of the source. Where only a bound is given, the exact number is not on record here.

Data set [1] in a line: Emitted dose and fine particle fraction. It is filed as physicochemical. Particulars: formulation % w/v: buprenorphine 0.2, buspirone 2.0, cyclobenzaprine 2.0, triazolam 0.1, zolpidem 0.2; for Avg. Emitted Dose per Actuation: 10 second actuations, average of n=3-5 runs; for Avg. FPF: fine particle fraction = percent of total dose collected less than 5.6 microns, n=3-5 runs.
The nature of data set [2]: Degradation determination after aerosolization (stability indicating assay). As to conditions: zolpidem 0.2% in PG, target resistance 0.600 ohms, runs 5-9.
Data set [3] in a line: Aerosol particle size determination, 10-stage MOUDI at 30 L/min with USP throat. As to conditions: for MMAD / Material Balance / Throat Deposition / Wall Losses / Throat Depositions: 5 mg/sec. It is filed as physicochemical. The protocol: Aerosol particle size was determined using the 10-stage MOUDI operated at 30 L/min. The sample foils were placed in beakers, 10 mL of sample solvent was added, and the beakers swirled thoroughly. For the USP throat, 10 mL of sample solvent was added and shaken thoroughly. Wall losses were assessed by washing the MOUDI walls with a Kimwipe dipped in sample solvent. The same 10 mL of mobile phase was used to wash the walls of all the stages. The collected samples were analyzed.
(§1) Aerosol particle size was determined using the 10-stage MOUDI operated at 30 L/min. […] For the USP throat, 5 mL of sample solvent was added and shaken thoroughly. Wall losses were assessed by washing the MOUDI walls with a Kimwipe dipped in sample solvent. The same sample solvent was used to wash the walls of all the stages. The collected samples were analyzed using the assay method.
Aerosol particle size was determined using the 10-stage MOUDI operated at 30 L/min. For MOUDI runs 1-4, the sample foils were placed in beakers, 5 mL of sample solvent was added, and the beakers swirled thoroughly. For the USP throat, 5 mL of sample solvent was added and shaken thoroughly. Wall losses were assessed by washing the MOUDI walls with a Kimwipe dipped in sample solvent. The same 5 mL of sample solvent was used to wash the walls of all the stages. The collected samples were analyzed using the assay method. For MOUDI runs 5-9, the procedure was the same as above except distilled deionized water was used in place of the sample solvent. This was done to allow for simultaneous PG particle size analysis. Two actuations were used for all MOUDI runs with the exception of MOUDI runs 1 and 7.
Aerosol particle size was determined using the 10-stage MOUDI operated at 30 L/min. […] For the USP throat, 10 mL of sample solvent was added and shaken thoroughly. Wall losses were assessed by washing the MOUDI walls with a Kimwipe dipped in sample solvent. The same sample solvent was used to wash the walls of all the stages. The collected samples were analyzed using the assay method.
as §1

For data set [4] the following is noted: 5 mg/sec.
Protocol: Sham determinations were performed for each set of experiments to determine an “expected” amount of active per capillary aerosol generator (CAG) activation. This was performed by running the equipment at a target resistance of 0.2 ohms, which pumped out the solution of buspirone in PG as a liquid instead of an aerosol. The result was collected on a Kimwipe which was placed into sample solvent and sonicated. This process was performed in triplicate. Two solution concentrations of about 0.5% and about 2% of buspirone in PG were prepared.
(§2) Dose capture determinations were conducted (Table 1). For dose capture runs 1-6, the device was actuated once, the aerosol collected in acidified water, diluted to 40 mL. Runs 7-12 were performed as above, except distilled de-ionized water was used instead of acidified water. For runs 13-33, the device was actuated 4 times, the aerosol was collected in 8 mL of sample solvent, and analyzed for buspirone and degradation products using the “stability indicating” assay. Intact buspirone was calculated. The extent of degradation was evaluated by assuming that the degradation products had similar extinction coefficients as the parent at the wavelength of interest.
The result was collected on a Kimwipe, placed into sample solvent and sonicated. This process was performed in triplicate and was analyzed with other analytical samples.
(§3) Dose capture determinations were conducted.
Sham determinations were performed for each set of experiments to determine an “expected” amount of active per CAG activation. […] This was collected on a Kimwipe which was placed into sample solvent and sonicated. The process was performed in triplicate and was analyzed with other analytical samples.
(§4) Dose capture determinations were conducted (Table 6). For dose capture runs 1-3, the device was actuated once, the aerosol collected in 10 mL of sample solvent and analyzed using the “stability indicating” method. Runs 4-9 were performed as above except the device was actuated twice and collected in 10 mL of sample solvent. […] The extent of degradation was evaluated by assuming that the degradation products had similar extinction coefficients as the parent at the wavelength of interest.
Sham determinations were performed for each set of experiments to determine an “expected” amount of active per CAG activation. […] This was collected on a Kimwipe which was placed into sample solvent and sonicated. This process was performed in triplicate and was analyzed with other analytical samples.
(§5) Dose capture determinations were conducted. […] The extent of degradation was evaluated by assuming that the degradation products had similar extinction coefficients as the parent at the wavelength of interest.
Sham determinations were performed for each set of experiments to determine an “expected” amount of active per CAG activation. This was performed by running the equipment at a target resistance of 0.2 ohms. […] This was collected on a Kimwipe which was placed into sample solvent and sonicated. This process was performed in triplicate and was analyzed with other analytical samples.
The conditions of data set [5]: 2 % in PG.
Protocol: Buspirone was dissolved in acidic and basic solutions and heated to 50 degrees Celsius for 1 hour to promote acid and base catalyzed hydrolysis. Buspirone was also subjected to peroxide with heating to 50 degrees Celsius for 1 hour to promote oxidation. As a final stability check, solid buspirone was subjected to heating with a differential scanning calorimeter. Conditions were optimized to produce thermal degradation products by heating to 350 degrees Celsius.
as §2
After evaluation of the data, it was determined that buspirone should be thermally stressed with a DSC to produce a degradation profile thought to be more representative of buspirone degradation after aerosolization via the CAG. In doing so, thermal degradation products were produced under the conditions stated above. This provided an indication of retention times for potential degradation products of buspirone after aerosolization using the CAG.
Buprenorphine was subjected to heating with a differential scanning calorimeter.
as §3
Conditions were optimized to produce thermal degradation products by heating to 350 degrees Celsius.
as §4
Thermal degradation products were produced under the conditions stated above.
Conditions were optimized to produce thermal degradation products by heating to 300 degrees Celsius.
as §5
Where [6] appears, read: zolpidem 0.2% in PG, target resistance 0.590 ohms, 1 actuation.
Setting [7] is: zolpidem 0.2% in PG, target resistance 0.600 ohms, 1 actuation.
[8] abbreviates: buspirone 0.5% in PG, target resistance 0.600 ohms.
The mark [9] stands for this setting: buspirone 0.5% in PG, target resistance 0.610 ohms, monohydrochloride.
The mark [10] stands for this setting: buspirone 2.0% in PG, target resistance 0.590 ohms.
Setting [11] is: buspirone 2.0% in PG, target resistance 0.595 ohms.
Setting [12] is: buspirone 2.0% in PG, target resistance 0.600 ohms, monohydrochloride.
Where [13] appears, read: buspirone 2.0% in PG, target resistance 0.605 ohms, runs 11-15, listed as buspirone, monohydrochloride.
Setting [14] is: buspirone 2.0% in PG, target resistance 0.605 ohms, runs 11-15, monohydrochloride.
[15] abbreviates: buspirone 2.0% in PG, target resistance 0.610 ohms.
Where [16] appears, read: triazolam 0.1% in PG, target resistance 0.590 ohms.
Where [17] appears, read: triazolam 0.1% in PG, target resistance 0.595 ohms.
Where [18] appears, read: triazolam 0.1% in PG, target resistance 0.600 ohms.
[19] abbreviates: triazolam 0.1% in PG, target resistance 0.605 ohms, runs 5-9.
[20] abbreviates: cyclobenzaprine 2.0% in PG, target resistance 0.595 ohms, 1 actuation.

On to `Cc1ccc(-c2nc3ccc(C)cn3c2CC(=O)N(C)C)cc1` [Zolpidem, N,N,6-Trimethyl-2-(4-methylphenyl)-imidazo[1,2-a]pyridine-3-acetamide], for which, in data set [1], the “Avg. Emitted Dose per Actuation” value is 92.55 µg and the “Avg. FPF” value is 93.25 % of Emitted. For the same molecule, in data set [2], the “Percent Degradation” value was 0.26% and 0.02% and 0.00% and 0.03% and 0.16%; the average degradation result is reported as “less than 0.1%”. Moreover, in data set [3] (setting [6]), the MMAD is 0.464 microns, the “Material Balance” value was 64.51%, the “Throat Deposition” value came to 5.36% and the “Wall Losses” value was determined as 1.68%. Also, in data set [3] (setting [7]), the MMAD was 0.481 microns and 0.459 microns and 0.420 microns and 0.421 microns and 0.404 microns and 0.431 microns; the “Material Balance” value is 100.06% and 90.77% and 97.74% and 95.83% and 101.56% and 93.04%; the “Throat Deposition” value is 3.97% and 0.12% and 0.62% and 1.27% and 0.21% and 1.95%; the “Wall Losses” value is 6.18% and 2.67% and 3.55% and 3.85% and 0.90% and 1.35%. Besides, in data set [3] (zolpidem 0.2% in PG, target resistance 0.600 ohms, approximately 75 J, runs 5-8), the “average MMAD” value is on record as “approximately 0.45 microns”.

On to `Cl.O=C1CC2(CCCC2)CC(=O)N1CCCCN1CCN(c2ncccn2)CC1` [Buspirone, 8-[4-[4-(2-pyrimidinyl)-1-piperazinyl]butyl]-8-azaspiro[4,5]decane-7,9-dione monohydrochloride], for which the “Avg. Emitted Dose per Actuation” value in data set [1] came out at 1010.44 µg. Moreover, the “Avg. FPF” value in data set [1] is given as 91.60 % of Emitted. Further, the “Dose Capture” value in data set [4] (buspirone 2.0% in PG, target resistance 0.595 ohms, runs 13-15, mean) is 102^1%; in data set [4] (buspirone 2.0% in PG, target resistance 0.600 ohms, runs 24-28, mean), 105^3%; in data set [4] (buspirone 2.0% in PG, target resistance 0.605 ohms, about 90 J, runs 29-33, mean, listed as buspirone, monohydrochloride) it was 104%; in data set [4] (buspirone 2.0% in PG, target resistance 0.605 ohms, about 90 J, runs 29-33, mean, monohydrochloride), 104^3%; in data set [4] (buspirone 2.0% in PG, target resistance 5.90 ohms, runs 7-9, mean of 3) it was 9^1%. Also, the “average degradation of the active” value in data set [5] is recorded as 0.25%. Also, the “major degradation peak, share of degradation observed” value in data set [5] is “approximately 0.09%”. Also, the “other 8 degradation peaks, each” value in data set [5] was “approximately 0.02%”. The MMAD is 0.31 microns in data set [3] (setting [8]); 0.30 microns and 0.47 microns and 0.32 microns and 0.29 microns in data set [3] (setting [9]); 0.54 microns in data set [3] (setting [10]); 0.46 microns in data set [3] (setting [11]); 0.30 microns and 0.48 microns in data set [3] (setting [12]); “approximately 0.30 microns” in data set [3] (setting [13]). Besides, the MMAD in data set [3] (setting [14]) is 0.31 microns and 0.30 microns and 0.29 microns and 0.32 microns; in data set [3] (setting [15]) it was 0.30 microns. Also, the “Material Balance” value in data set [3] (setting [8]) is 100%; in data set [3] (setting [10]) it was 11%; in data set [3] (setting [11]), 91%; in data set [3] (setting [12]) it was 100% and 98%; in data set [3] (setting [13]), “exceeded 100%”; in data set [3] (setting [14]) it was 105% and 108% and 102% and 107% and 111%. The “Material Balance” value in data set [3] (setting [15]) is 98%. Further, the “Throat Deposition” value was 7% in data set [3] (setting [8]); 10% and 3% and 6% and 4% in data set [3] (setting [9]); 44% in data set [3] (setting [10]); 44% in data set [3] (setting [11]); “less than 5%” in data set [3] (setting [13]); 4% and 1% and 3% and 2% in data set [3] (setting [14]). Besides, the “Throat Deposition” value in data set [3] (setting [15]) is given as 14%. The “Wall Losses” value was 2% in data set [3] (setting [8]); 4% in data set [3] (buspirone 0.5% in PG, target resistance 0.610 ohms); 6% in data set [3] (setting [10]); 1% in data set [3] (setting [11]); 2% and 4% in data set [3] (setting [12]); 4% and 3% and 9% in data set [3] (setting [14]). The “Wall Losses” value in data set [3] (setting [15]) was 1%. Moreover, the “recovered buspirone found on the throat” value in data set [3] (buspirone 2.0% in PG, energies approximately 77 J, runs 8 and 10) is reported as “greater than 40%”.

On to `Cc1nnc2n1-c1ccc(Cl)cc1C(c1ccccc1Cl)=NC2` [Triazolam, 8-chloro-6-(2-chlorophenyl)-1-methyl-4H-[1,2,4]triazolo[4,3-a][1,4]benzodiazepine], for which the “Avg. Emitted Dose per Actuation” value in data set [1] amounted to 46.46 µg. Besides, in data set [1], the “Avg. FPF” value is 86.16 % of Emitted. The “Dose Capture” value was 90^2% in data set [4] (triazolam 0.1% in PG, target resistance 0.605 ohms, about 90 J, runs 10-14, mean of 15); 90% in data set [4] (triazolam 0.1% in PG, target resistance 0.605 ohms, about 90 J, runs 10-14, mean of 15, listed as triazolam); 86% in data set [4] (triazolam 0.1% in PG, target resistance 0.610 ohms). Moreover, the MMAD in data set [3] (setting [16]) is 0.847 microns and 0.642^3 microns; in data set [3] (setting [17]), 0.414^3 microns; in data set [3] (setting [18]), 0.378^3 microns; in data set [3] (setting [19]), 0.511^3 microns and 0.431^3 microns and 0.483 microns and 0.444^3 microns and 0.446^3 microns. In addition, the “Material Balance” value was 74.08% and 108.22^3% in data set [3] (setting [16]); 98.50^3% in data set [3] (setting [17]); 104.22^3% in data set [3] (setting [18]); 102.10^3% and 96.32^3% and 107.02% and 91.60^3% and 101.09^3% in data set [3] (setting [19]). In addition, the “Wall Losses” value is 15.51^3% in data set [3] (setting [16]), 6.69^3% in data set [3] (setting [17]) and 11.04^3% in data set [3] (setting [18]). The “Throat Deposition” value in data set [3] (triazolam 0.1% in PG, target resistance 0.590 ohms, approximately 70 J, runs 1 and 2) was 33.14% and 39.28^3%; in data set [3] (triazolam 0.1% in PG, target resistance 0.590 ohms, approximately 70 J, runs 1 and 2, listed as triazolam), “greater than 30%”; in data set [3] (setting [17]) it was 3.66^3%; in data set [3] (setting [18]), 2.96^3%; in data set [3] (setting [19]), 2.43^3% and 1.35^3% and 2.87% and 2.47^3% and 1.97^3%; in data set [3] (triazolam 0.1% in PG, target resistance 0.605 ohms, runs 5-9, listed as triazolam), “less than 3%”. Besides, in data set [3] (triazolam 0.1% in PG, target resistance 0.605 ohms, approximately 90 J, runs 5-9), the “average MMAD” value was “approximately 0.46 microns”.

Turning to `CN(C)CCC=C1c2ccccc2C=Cc2ccccc21` [Cyclobenzaprine, 3-(5H-Dibenzo[a,d]cyclohepten-5-ylidene)-N,N-dimethyl-1-propanamine], in data set [1], the “Avg. Emitted Dose per Actuation” value amounted to 836.16 µg and the “Avg. FPF” value is 94.35 % of Emitted. Besides, the “Dose Capture” value in data set [4] (cyclobenzaprine 2.0% in PG, target resistance 0.595 ohms, about 73 J, 1 actuation, listed as cyclobenzaprine) is on record as greater than 95%. In addition, the “Dose Capture” value in data set [4] (cyclobenzaprine 2.0% in PG, target resistance 0.610 ohms, 1 actuation) is on record as 109.93%. The average degradation entry in data set [5] is reported as “less than 0.3%”. In addition, in data set [3] (setting [20]), the MMAD was 0.330 microns and 0.329 microns and 0.343 microns and 0.333 microns and 0.336 microns and 0.256^2 microns; the “Material Balance” value was 92.04% and 91.03% and 93.48% and 99.10% and 93.99% and 61.98^2%; the “Throat Depositions” value was 3.45% and 3.39% and 5.55% and 2.59% and 3.09% and 4.89^2%; the “Wall Losses” value was 0.81% and 1.12% and 2.33% and 1.98% and 2.26% and 1.99^2%. Also, the “Throat Depositions” value in data set [3] (cyclobenzaprine 2.0% in PG, target resistance 0.595 ohms, 1 actuation, listed as cyclobenzaprine) is “less than 4%”. Further, the “average MMAD” value in data set [3] (cyclobenzaprine 2.0% in PG, target resistance 0.595 ohms, approximately 71 J, runs 1-6 excluding run 3) was “approximately 0.33 microns”.
